According to US11598778B2, “Method for diagnosis, prognosis and determination of treatment for cutaneous t-cell lymphoma” (UNIVERSITY OF PITTSBURGH—OF THE COMMONWEALTH SYSTEM OF …, priority 2013, dated 2023):

What was measured:
Assay type in all cases: cell-based, human
RUNX3 = test: qRT-PCR of RUNX3 gene expression in cultured PBMCs after drug treatment; conditions: isolated PBMCs, 48 hours of incubation with treatment; 4 μM romidepsin or 20 uM pralatrexate; romidepsin p<0.05; FIG. 5C
Method: (§1) Isolated PBMCs were cultured overnight and the next day divided into two treatment groups: 4 μM romidepsin and 20 uM pralatrexate. Each treatment was added 24 hours following culture initiation and was replaced along with fresh media 24 hours after initial treatment. After 48 hours of incubation with treatment, RNA was isolated from treated cells using RNAprotect and RNeasy (Qiagen, Valencia, Calif.) per manufacturer's instructions. For cDNA synthesis, total RNA (100 ng) was used for Reverse Transcription (RT) with Superscript II reverse transcriptase (Life Technologies, Gaithersburg, Md.) using oligo dT primers according to the recommendations of the manufacturer. 2 ul of the resulting cDNA was used for each PCR reaction. Quantitative reverse transcription PCR was performed using TaqMan PCR master mix (Applied Biosystems, Foster City, Calif.) together with TaqMan probes and primers (Applied Biosystems) using standard conditions. Expression of TOX, PLS3 and […] genes were measured in this way.

PLS3 = test: qRT-PCR of PLS3 gene expression in cultured PBMCs after drug treatment; conditions: isolated PBMCs, 48 hours of incubation with treatment; 4 μM romidepsin or 20 uM pralatrexate; romidepsin p<0.05; FIG. 5B
Method: as §1

TOX = test: qRT-PCR of TOX gene expression in cultured PBMCs after drug treatment; conditions: isolated PBMCs, 48 hours of incubation with treatment; 4 μM romidepsin or 20 uM pralatrexate; romidepsin p<0.05; FIG. 5A
Method: as §1

C#CCC(Cc1cnc2nc(N)nc(N)c2n1)c1ccc(C(=O)N[C@@H](CCC(=O)O)C(=O)O)cc1 (stereo partly drawn) [pralatrexate]
expression of RUNX3 (RUNX3): did not result in altered gene expression
gene expression of PLS3 (PLS3): did not result in altered gene expression
gene expression of TOX (TOX): did not result in altered gene expression
